Data as given in patent US5663197A, “2-(1-hydroxyethyl)-5-hydroxynaphtho[2,3-b]furan-4,9-dione and antitumor agents comprising this compound” (priority 1992, dated 1997).
Values after ≈ are worked out from the molar mass of the structure shown.

Tests used:
[1] = General toxicology in ICR mice; conditions: mouse, in vivo, ICR mice (male)
[2] = tested on: Human lung adenocarcinoma SK-LU-1 cells; assay: In vitro antitumor test (trypan blue exclusion viable cell count), SK-LU-1; format: cell-based; conditions: 72 h, three days exposure, read-out: LD50 (IC50), 50% growth-inhibitory dose
Method: (§1) An appropriate amount of NFD was dissolved in DMSO to give a 1.0 mg/ml stock solution, which was diluted as necessary before use.
(§2) The following cells in the late logarithmic phase were harvested after treatment with trypsin (containing 0.25% trypsin and 0.02% EDTA; 37° C., 3 min) and used in the test: human lung adenocarcinoma cell lines A-549, VMRC-LCD and SK-LU-1, human lung squamous cell carcinoma Calu-1 cells, human colon adenocarcinoma WiDr cells, human prostate cancer LNCaP cells, human vaginal squamous cell carcinoma A-431 cells, human cervical carcinoma HeLa cells, human cholangiocarcinoma HuCC-T1 cells, mouse skin cancer melanoma B16 (M4) cells, human pancreatic carcinoma ASPC-1 cells, human neuroblastoma IMR-132 cells, human lung small cell carcinoma SCCH-194 cells, human uninary bladder carcinoma T24 cells, human renal cell carcinoma […] cells, human gastric cancer NUGC-2 cells, human thyroid carcinoma 8305C cells, human hepatoma HUH-7 cells, human ovarian carcinoma TYK-nu cells and human chorio carcinoma BeWo cells. […] These cells were plated onto a 96-well microplate at a density of 5-10×10^3 cells/cm^2 using DMEM or RPMI-1640 medium containing 10% fetal bovine serum and cultured for 24 hours in a conventional manner, after which a pre-determined amount of NFD dissolved in DMSO was added to each well. […]

malignant tumor cells = assay: In vitro antitumor test, panel of malignant tumor cells; format: cell-based, human and mouse
Method: as §1
The antitumor effect of NFD on human cancer cells and mouse cancer cells was assessed according to the following methods.
as §2, with “cells. Suspension cultures of human breast cancer MRK-nu-1 cells, human malignant B-cell lymphoma cells and human chronic myelogenous leukemia K562 cells were used to harvest the cells to be used in the test.” for “cells.”, “well. Cultivation was continued, and the number of viable cells was counted after 24, 48 and 72 hours.” for “well.”
(§3) Growth inhibitory action and lethal activity of NFD on various types of malignant tumor cells and normal human cells listed above were evaluated by counting the number of viable cells in each well of the 96-well microplate. […]

[3] = tested on: Normal human peripheral blood lymphocytes; assay: In vitro growth test on normal cells, peripheral blood lymphocytes; format: cell-based
Method: as §1, §2

[4] = tested on: Normal human tracheal epithelial cells; assay: In vitro growth test on normal cells, tracheal epithelial cells; format: cell-based
Method: as §1, §2

Normal human renal cells = assay: In vitro growth test on normal cells, renal cells; format: cell-based
Method: as §1
as §2, with “cells. Suspension cultures of human breast cancer MRK-nu-1 cells, human malignant B-cell lymphoma cells and human chronic myelogenous leukemia K562 cells were used to harvest the cells to be used in the test.” for “cells.”, “well. Cultivation was continued, and the number of viable cells was counted after 24, 48 and 72 hours.” for “well.”
as §3

[5] = tested on: Human thyroid carcinoma 8305C cells; assay: In vitro antitumor test (trypan blue exclusion viable cell count), 8305C; format: cell-based
Method: as §1, §2

[6] = tested on: carcinogenic promotion (skin papillomas in mice); assay: Inhibition of two-step skin carcinogenesis in mice skin; format: in vivo, mouse (female ICR); conditions: DMBA initiator, TPA promoter, 20 weeks; FIG. 28 (NFD 85 nmol), FIG. 29 (lapacoal)
Method: Female ICR mice were used as test animals. Fifteen mice were housed in a cage and kept on a commercial pellet diet and drinking water ad libitum until the end of the experiment. The mice were purchased at their age of six-week-old. Dorsal hair of mice was shaved, and next day, 390 nmol of 7,12-dimethylbenz(a)anthracene (DMBA) in 0.1 ml acetone was applied, as an initiator, on the shaved back. One week later, 1.7 nmol of 12-O-tetradecanoylphorbol-13-acetate (TPA) in 0.1 ml acetone was applied, as a promoter, to the same place twice a week. This procedure was repeated for 20 weeks.
Mice were observed once a week for the number of papillomas larger than 1 mm, and the experimental results were given as the percentage of papilloma-bearing mice in each group and the number of papillomas per mouse.

CC(O)c1cc2c(o1)C(=O)c1cccc(O)c1C2=O (stereo not shown) [NFD, 2-(1-hydroxyethyl)-5-hydroxynaphtho[2,3-b]furan-4,9-dione]
LD50 ([1]; ip, intraperitoneally): 7.3 mg/kg
LD50 ([1]; po, orally): 8.4 mg/kg
IC50 [2]: 0.017 µg/mL (≈ 0.0658 µM)
selective toxicity to tumor cells (malignant tumor cells; 23 listed tumor cells): exhibits selective toxicity
growth inhibition of tumor cells (malignant tumor cells; at low concentrations, 23 listed tumor cells): remarkably inhibits the growth
IC50 (malignant tumor cells; read-out: LD50 (IC50) range over malignant tumor cells): 0.0055 to 0.025 µg/mL (≈ 0.0213 to 0.0968 µM)
adverse effects on growth of normal cells ([3]; FIG. 26, at concentrations which cause necrosis in tumor cells): no adverse effects
IC50 ([3]; Homo sapiens, Lymphocyte, 72 h, normal peripheral blood lymphocytes, three days exposure, read-out: LD50 (IC50), 50% growth-inhibitory dose): 0.084 µg/mL (≈ 0.325 µM)
adverse effects on growth of normal cells ([4]; FIG. 25, at concentrations which cause necrosis in tumor cells): no adverse effects
IC50 ([4]; Homo sapiens, Epithelial cell, 72 h, normal tracheal epithelial cells, three days exposure, read-out: LD50 (IC50), 50% growth-inhibitory dose): > 0.055 µg/mL
adverse effects on growth of normal cells (Normal human renal cells; FIG. 27, at concentrations which cause necrosis in tumor cells): no adverse effects
concentration inhibiting growth of normal renal cells (Normal human renal cells; FIG. 27, only at higher concentration): 100 ng/mL
IC50 (Normal human renal cells; Homo sapiens, 72 h, normal renal cells, three days exposure, read-out: LD50 (IC50), 50% growth-inhibitory dose): 0.065 µg/mL (≈ 0.252 µM)
IC50 ([5]; 72 h, three days exposure, read-out: LD50 (IC50), 50% growth-inhibitory dose): 0.025 µg/mL (≈ 0.0968 µM)
IC (almost complete) ([5]; FIG. 19, read-out: concentration inhibiting growth almost completely): 0.028 µg/mL
inhibitory effect on carcinogenic promotion in skin [6]: inhibitory effect
